Test results: patent publication US12668599B2, “Heterobifunctional compounds and methods of treating disease” (Halda Therapeutics OpCo, Inc., priority 2023, dated 2026)

Tests used:
[1] = tested on: VCaP cells; assay: Cellular growth inhibition assay for VCaP cells (CellTiter-Glo 2.0, 72 hours); type: cell-based, human
[2] = Stability analysis of Crystal Form A and Crystal Form B in solvent suspensions (XRPD); type: physicochemical
Experimental: The obtained suspensions were stirred at 25° C. and 50° C. for 1 week, respectively. Solid parts (wet cakes) were isolated by centrifugation filtration at […] temperature and investigated by XRPD.

[3] = tested on: T-Rex 293 cell line SC3 cells having increased expression of androgen receptor protein due to exposure to doxycycline; assay: Cellular growth inhibition, T-Rex 293 SC3 cells with doxycycline-induced androgen receptor (CellTiter-Glo 2.0, 72 hours); type: cell-based
[4] = tested on: VCaP cell tumors; assay: Castrate VCaP tumor xenograft study, tumor growth; type: in vivo; details: castrated CB17.SCID mice bearing VCaP tumors, oral gavage; same mg/kg dose and dosing frequency for Compound II-5 and Compound A, FIG. 8
Experimental: Compound II-5 was evaluated for in vivo performance when administered to CB17.SCID mice bearing VCaP cell tumors.
5M VCaP cells were subcutaneously implanted into CB17.SCID mice in 50% Matrigel (Corning). Mice were castrated under anesthesia once tumor volumes reached 100 mm^3. Tumors were then allowed to reach an average of approximately 150 mm^3 before randomization into efficacy arms. Tumors were measured twice weekly for Tumor Growth Inhibition (TGI) calculation. For PK/PD analysis, tumors were allowed to reach an average of 400 mm^3, before dosing the mice with test compound by oral gavage (n=5) for seven days. Mice were sacrificed 24 hours following the final dose, and tumors were harvested for downstream analysis. Plasma samples were collected from all dosed mice 2 hours following the final dose to determine test compound exposure by LC-MS/MS. Test compounds used in the experiment were (i) Compound II-5 and (ii) a commercially available nonsteroidal antiandrogen medication that has been approved by the United States Food and Drug Administration for treatment of prostate cancer (hereinafter “Compound A”).

COc1cc(O[C@H]2C(C)(C)[C@H](NC(=O)c3cnc(N4CCC5(CC4)CC(Oc4ccc(C6=N[C@@H](Cc7ncco7)c7nnc(C)n7-c7sc(C)c(C)c76)cc4)C5)nc3)C2(C)C)ccc1C#N [II-5, N-[(1r,3r)-3-(4-cyano-3-methoxy-phenoxy)-2,2,4,4-tetramethyl-cyclobutyl]-2-[2-[4-[(9S)-4,5,13-trimethyl-9-(oxazol-2-ylmethyl)-3-thia-1,8,11,12-tetrazatricyclo[8.3.0.0^2,6]trideca-2 (6),4,7,10,12-pentaen-7-yl]phenoxy]-7-azaspiro[3.5]nonan-7-yl]pyrimidine-5-carboxamide]
Ratio of GI50's ([1]; GI50 of the top compound in the pair divided by GI50 of the lower compound): 1
GI50 ([1]; Homo sapiens, VCaP, 72 h, CellTiter-Glo 2.0): < 500 nM
XRPD form after suspension ([2]; about 3 mg Crystal Form A + 3 mg Crystal Form B in saturated Acetone solution, 25° C. for 1 week): Crystal Form A
XRPD form after suspension ([2]; about 3 mg Crystal Form A + 3 mg Crystal Form B in saturated Acetone solution, 50° C. for 1 week): Crystal Form A
XRPD form after suspension ([2]; about 3 mg Crystal Form A + 3 mg Crystal Form B in saturated Acetonitrile solution, 25° C. for 1 week): Crystal Form A
XRPD form after suspension ([2]; about 3 mg Crystal Form A + 3 mg Crystal Form B in saturated Acetonitrile solution, 50° C. for 1 week): Crystal Form A
XRPD form after suspension ([2]; about 3 mg Crystal Form A + 3 mg Crystal Form B in saturated EtOH solution, 25° C. for 1 week): Crystal Form A
XRPD form after suspension ([2]; about 3 mg Crystal Form A + 3 mg Crystal Form B in saturated EtOH solution, 50° C. for 1 week): Crystal Form A
XRPD form after suspension ([2]; about 3 mg Crystal Form A + 3 mg Crystal Form B in saturated THF/Heptane (1/1, v/v) solution, 25° C. for 1 week): Crystal Form A
XRPD form after suspension ([2]; about 3 mg Crystal Form A + 3 mg Crystal Form B in saturated THF/Heptane (1/1, v/v) solution, 50° C. for 1 week): Crystal Form A
Ratio of GI50's ([3]; GI50 of the top compound in the pair divided by GI50 of the lower compound, T-Rex 293 SC3 cells with doxycycline-induced androgen receptor): 1
GI50 ([3]; T-Rex 293 SC3 cells with 10 ng/ml doxycycline (increased androgen receptor expression), 72 hours, CellTiter-Glo 2.0): < 500 nM
tumor growth inhibition (tumor volume) [4]: more effective in reducing tumor growth in this experiment than Compound A
